Here are results for 24 compounds from patent US20250101041A1, “POSITIVE ALLOSTERIC MODULATORS OF THE MUSCARINIC ACETYLCHOLINE RECEPTOR M4” (Vanderbilt University, priority 2022, published 2025).

In this assay the target is T1, human mAChR M4 (Homo sapiens, UniProt P08173).
T1 construct: expressed in transfected cells; host or cells: CHO-K1 (American Type Culture Collection), stably expressing hM4 and Gqi5
T1 sequence (P08173 1-479): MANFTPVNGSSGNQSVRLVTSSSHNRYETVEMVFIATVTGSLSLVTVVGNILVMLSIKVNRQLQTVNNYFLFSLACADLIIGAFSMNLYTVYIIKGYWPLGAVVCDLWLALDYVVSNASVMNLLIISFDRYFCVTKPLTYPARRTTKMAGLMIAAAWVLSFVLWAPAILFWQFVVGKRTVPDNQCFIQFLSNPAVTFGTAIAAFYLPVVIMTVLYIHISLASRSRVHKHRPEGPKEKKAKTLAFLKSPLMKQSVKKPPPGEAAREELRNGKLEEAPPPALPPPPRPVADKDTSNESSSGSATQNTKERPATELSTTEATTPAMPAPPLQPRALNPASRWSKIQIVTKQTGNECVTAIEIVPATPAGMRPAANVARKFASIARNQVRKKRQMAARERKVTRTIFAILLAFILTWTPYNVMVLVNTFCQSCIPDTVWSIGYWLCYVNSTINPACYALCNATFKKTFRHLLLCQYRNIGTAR
In words: mAChR M4 cell-based functional assay: calcium mobilization (Fluo-4, FDSS), potentiation of EC20 acetylcholine response in hM4-Gqi5 CHO-K1 cells. The following applies: human M4; for Emax at 30 µM: CHO-K1, % ACh maximum at 30 μM; for EC50: potentiation of EC20 acetylcholine response, calcium mobilization. The method in brief: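 CHO-K1 cells stably co-expressing human M4 and chimeric Gqi5, loaded with Fluo-4 AM (50 min, 37 °C). Compounds in 11-point 1:3 series added first; EC20 acetylcholine added at 144 s and again at 230 s. Calcium read on FDSS at 1 Hz; EC50 and Emax from four-parameter logistic fit of potentiated EC20 response.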

`CCc1cc(=O)n2nc(N3CCc4ncc(-c5ccc(C)nc5)cc4C3)c(C)c(C)c2n1` [Compound 1-106, 2-ethyl-8,9-dimethyl-7-(3-(6-methylpyridin-3-yl)-7,8-dihydro-1,6-naphthyridin-6(5H)-yl)-4H-pyrimido[1,2-b]pyridazin-4-one]: the Emax at 30 µM was found to be 104% and the EC50 came out at 108 nM.
`Cc1cc2nccc(=O)n2nc1N1CCc2ncc(-c3ccccc3C3(C#N)CC3)cc2C1` [Compound 1-438, 1-(2-(6-(8-methyl-4-oxo-4H-pyrimido[1,2-b]pyridazin-7-yl)-5,6,7,8-tetrahydro-1,6-naphthyridin-3-yl)phenyl)cyclopropane-1-carbonitrile]: the maximal effect (Emax) at 30 µM worked out at 45% and the EC50 was found to be 3900 nM.
As to `Cc1cc(=O)n2nc(N3CCc4ncc(Oc5ccccc5F)cc4C3)c(C)cc2n1` [Compound 3-2, 7-(3-(2-fluorophenoxy)-7,8-dihydro-1,6-naphthyridin-6(5H)-yl)-2,8-dimethyl-4H-pyrimido[1,2-b]pyridazin-4-one], the Emax at 30 µM was determined as 80% and the EC50 turned out to be 55 nM.
The corresponding values for `Cc1cc2nccc(=O)n2nc1N1CCc2ncc(-c3ccccc3C(F)F)cc2C1` [Compound 1-434, 7-(3-(2-(difluoromethyl)phenyl)-7,8-dihydro-1,6-naphthyridin-6(5H)-yl)-8-methyl-4H-pyrimido[1,2-b]pyridazin-4-one] are 90% and 238 nM.
With `Cc1cc2nc(C(F)F)cc(=O)n2nc1N1CCc2ncc(Nc3ccnn3C)cc2C1` [Compound 2-27, 2-(difluoromethyl)-8-methyl-7-(3-((1-methyl-1H-pyrazol-5-yl)amino)-7,8-dihydro-1,6-naphthyridin-6(5H)-yl)-4H-pyrimido[1,2-b]pyridazin-4-one], the maximal response (Emax) at 30 µM came to 86% and the concentration giving a half-maximal response (EC50) came to 41 nM.
The corresponding values for `Cc1cc2nccc(=O)n2nc1N1CCc2ncc(-c3cccc(C#N)c3C)cc2C1` [Compound 1-437, 2-methyl-3-(6-(8-methyl-4-oxo-4H-pyrimido[1,2-b]pyridazin-7-yl)-5,6,7,8-tetrahydro-1,6-naphthyridin-3-yl)benzonitrile] are 70% and 1010 nM.
The matching figures for `Cc1cc2nccc(=O)n2nc1N1CCc2ncc(Nc3c(F)cncc3F)cc2C1` [Compound 2-154, 7-(3-((3,5-difluoropyridin-4-yl)amino)-7,8-dihydro-1,6-naphthyridin-6(5H)-yl)-8-methyl-4H-pyrimido[1,2-b]pyridazin-4-one]: 90% and 41 nM.
The corresponding values for `COc1cc(Cl)cc(Nc2cnc3c(c2)CN(c2nn4c(=O)ccnc4cc2C)CC3)c1` [Compound 2-82, 7-(3-((3-chloro-5-methoxyphenyl)amino)-7,8-dihydro-1,6-naphthyridin-6(5H)-yl)-8-methyl-4H-pyrimido[1,2-b]pyridazin-4-one] are 79% and 489 nM.
As to `Cc1cc(=O)n2nc(N3CCc4ncc(-c5cnn(CCN(C)C)c5)cc4C3)c(C)c(C)c2n1` [Compound 1-177, 7-(3-(1-(2-(dimethylamino)ethyl)-1H-pyrazol-4-yl)-7,8-dihydro-1,6-naphthyridin-6(5H)-yl)-2,8,9-trimethyl-4H-pyrimido[1,2-b]pyridazin-4-one], the Emax at 30 µM is 84% and the concentration giving a half-maximal response (EC50) turned out to be 1420 nM.
Regarding `[2H]C1([2H])Cc2ncc(Nc3ccccc3F)cc2C([2H])([2H])N1c1nn2c(=O)ccnc2cc1C` [Compound 2-166, 7-(3-((2-fluorophenyl)amino)-7,8-dihydro-1,6-naphthyridin-6(5H)-yl-5,5,7,7-d4)-8-methyl-4H-pyrimido[1,2-b]pyridazin-4-one], the maximum response (Emax) at 30 µM was found to be 84% and the EC50 amounted to 2 nM.
The corresponding values for `Cc1cc(=O)n2nc(N3CCc4ncc(-c5cccnc5C)cc4C3)c(C)c(C)c2n1` [Compound 1-122, 2,8,9-trimethyl-7-(3-(2-methylpyridin-3-yl)-7,8-dihydro-1,6-naphthyridin-6(5H)-yl)-4H-pyrimido[1,2-b]pyridazin-4-one] are 93% and 2930 nM.
Turning to `Cc1cc2nccc(=O)n2nc1N1CCc2ncc(-c3cnccc3C#N)cc2C1` [Compound 1-319, 3-(6-(8-methyl-4-oxo-4H-pyrimido[1,2-b]pyridazin-7-yl)-5,6,7,8-tetrahydro-1,6-naphthyridin-3-yl)isonicotinonitrile], the Emax at 30 µM turned out to be 34% and the EC50 worked out at 2640 nM.
The corresponding values for `Cc1cc2nc(C(F)F)cc(=O)n2nc1N1CCc2ncc(-c3ccnn3C)cc2C1` [Compound 1-36, 2-(difluoromethyl)-8-methyl-7-(3-(1-methyl-1H-pyrazol-5-yl)-7,8-dihydro-1,6-naphthyridin-6(5H)-yl)-4H-pyrimido[1,2-b]pyridazin-4-one] are 96% and 76 nM.
The corresponding values for `Cc1cc2nccc(=O)n2nc1N1CCc2ncc(Nc3cncc(C(F)(F)F)c3)cc2C1` [Compound 2-138, 8-methyl-7-(3-((5-(trifluoromethyl)pyridin-3-yl)amino)-7,8-dihydro-1,6-naphthyridin-6(5H)-yl)-4H-pyrimido[1,2-b]pyridazin-4-one] are 87% and 747 nM.
The matching figures for `COc1ccncc1-c1cnc2c(c1)CN(c1nn3c(=O)cc(C(F)F)nc3c(C)c1C)CC2` [Compound 1-190, 2-(difluoromethyl)-7-(3-(4-methoxypyridin-3-yl)-7,8-dihydro-1,6-naphthyridin-6(5H)-yl)-8,9-dimethyl-4H-pyrimido[1,2-b]pyridazin-4-one]: 77% and 156 nM.
Consider `Cc1cc2nccc(=O)n2nc1N1CCc2ncc(NCC3CC3)cc2C1` [Compound 2-89, 7-(3-((cyclopropylmethyl)amino)-7,8-dihydro-1,6-naphthyridin-6(5H)-yl)-8-methyl-4H-pyrimido[1,2-b]pyridazin-4-one], for which the Emax at 30 µM was determined as 93% and the EC50 turned out to be 332 nM.
The matching figures for `Cc1cc2nc(C)c(C)c(=O)n2nc1N1CCc2ncc(N3CCCn4nccc43)cc2C1` [Compound 2-13, 7-(3-(6,7-dihydropyrazolo[1,5-a]pyrimidin-4(5H)-yl)-7,8-dihydro-1,6-naphthyridin-6(5H)-yl)-2,3,8-trimethyl-4H-pyrimido[1,2-b]pyridazin-4-one]: 82% and 27 nM.
The corresponding values for `Cc1cc2nc(C)c(Cl)c(=O)n2nc1N1CCc2ncc(Nc3ccncc3F)cc2C1` [Compound 2-161, 3-chloro-7-(3-((3-fluoropyridin-4-yl)amino)-7,8-dihydro-1,6-naphthyridin-6(5H)-yl)-2,8-dimethyl-4H-pyrimido[1,2-b]pyridazin-4-one] are 95% and 1 nM.
The corresponding values for `Cc1cc2nc(C)c(F)c(=O)n2nc1N1CCc2ncc(Nc3ccncc3F)cc2C1` [Compound 2-156, 3-fluoro-7-(3-((3-fluoropyridin-4-yl)amino)-7,8-dihydro-1,6-naphthyridin-6(5H)-yl)-2,8-dimethyl-4H-pyrimido[1,2-b]pyridazin-4-one] are 97% and 64 nM.
With `Cc1cc2nccc(=O)n2nc1N1CCc2ncc(Nc3cnccn3)cc2C1` [Compound 2-127, 8-methyl-7-(3-(pyrazin-2-ylamino)-7,8-dihydro-1,6-naphthyridin-6(5H)-yl)-4H-pyrimido[1,2-b]pyridazin-4-one], the maximal effect (Emax) at 30 µM is 64% and the half-maximal effective concentration (EC50) worked out at 2540 nM.
The matching figures for `COCc1cc(=O)n2nc(N3CCc4ncc(C(F)(F)F)cc4C3)c(C)cc2n1` [Compound 1-313, 2-(methoxymethyl)-8-methyl-7-(3-(trifluoromethyl)-7,8-dihydro-1,6-naphthyridin-6(5H)-yl)-4H-pyrimido[1,2-b]pyridazin-4-one]: 96% and 503 nM.
The matching figures for `Cc1c(N2CCc3ncc(-c4ccc(F)cc4F)cc3C2)nn2c(=O)ccnc2c1C` [Compound 1-347, 7-(3-(2,4-difluorophenyl)-7,8-dihydro-1,6-naphthyridin-6(5H)-yl)-8,9-dimethyl-4H-pyrimido[1,2-b]pyridazin-4-one]: 80% and 217 nM.
The corresponding values for `Cc1cc(=O)n2nc(N3CCc4ncc(-c5cncc(C(F)(F)F)c5)cc4C3)c(C)c(C)c2n1` [Compound 1-124, 2,8,9-trimethyl-7-(3-(5-(trifluoromethyl)pyridin-3-yl)-7,8-dihydro-1,6-naphthyridin-6(5H)-yl)-4H-pyrimido[1,2-b]pyridazin-4-one] are 84% and 3410 nM.
Regarding `Cc1nc2c(C)c(C)c(N3CCc4ncc(C(F)(F)F)cc4C3)nn2c(=O)c1F` [Compound 1-18, 3-fluoro-2,8,9-trimethyl-7-(3-(trifluoromethyl)-7,8-dihydro-1,6-naphthyridin-6(5H)-yl)-4H-pyrimido[1,2-b]pyridazin-4-one], the Emax at 30 µM is 106% and the half-maximal effective concentration (EC50) worked out at 94 nM.
